Experiments:
Format in all cases: in vivo
[1] = system: foxtail, giant (Setaria faberii); assay: Test A postemergence, giant foxtail; conditions: 0 to 100 scale, 0 no effect, 100 complete control
In short: (§1)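 Visual injury scores (0 no effect to 100 complete control) were assigned about 10 d after treatment by comparison with untreated controls. Test chemicals, formulated in a surfactant-containing non-phytotoxic solvent, were applied to soil at planting or to plants at the one- to two-leaf stage.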

[2] = system: ryegrass, Italian (Lolium multiflorum); assay: Test A preemergence, Italian ryegrass; conditions: 0 to 100 scale, 0 is no effect, 100 is complete control
In short: as §1

[3] = system: barnyardgrass (Echinochloa crus-galli); assay: Test B flooded paddy test, barnyardgrass; conditions: Flood, 250 g ai/ha, applied to paddy water, 2-leaf stage, visual evaluation after 13 to 15 d
In short: (§2)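 Plants grown to 2-leaf stage. Compounds applied directly into paddy water flooded 3 cm above soil, with that depth kept throughout. After 13–15 d in greenhouse, visual rating versus controls on a 0–100 scale (0 no effect, 100 complete control).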

kochia (Kochia scoparia) [4] = assay: Test A postemergence, kochia; conditions: 0 to 100 scale, 0 no effect, 100 complete control
In short: as §1

[5] = system: wheat (Triticum aestivum); assay: Test A postemergence, wheat; conditions: 0 to 100 scale, 0 no effect, 100 complete control
In short: as §1

[6] = system: ragweed (common ragweed, Ambrosia elatior); assay: Test A postemergence, ragweed; conditions: 0 to 100 scale, 0 no effect, 100 complete control
In short: as §1

[7] = system: pigweed (Amaranthus retroflexus); assay: Test A postemergence, pigweed; conditions: 0 to 100 scale, 0 no effect, 100 complete control
In short: as §1

[8] = system: foxtail, giant (Setaria faberii); assay: Test A preemergence, giant foxtail; conditions: 0 to 100 scale, 0 is no effect, 100 is complete control
In short: as §1

[9] = system: barnyardgrass (Echinochloa crus-galli); assay: Test A postemergence, barnyardgrass; conditions: 0 to 100 scale, 0 no effect, 100 complete control
In short: as §1

[10] = system: pigweed (Amaranthus retroflexus); assay: Test A preemergence, pigweed; conditions: 0 to 100 scale, 0 is no effect, 100 is complete control
In short: as §1

[11] = system: blackgrass (Alopecurus myosuroides); assay: Test A postemergence, blackgrass; conditions: 0 to 100 scale, 0 no effect, 100 complete control
In short: as §1

[12] = system: galium (catchweed bedstraw, Galium aparine); assay: Test A postemergence, galium; conditions: 0 to 100 scale, 0 no effect, 100 complete control
In short: as §1

[13] = system: ragweed (common ragweed, Ambrosia elatior); assay: Test A preemergence, ragweed; conditions: 0 to 100 scale, 0 is no effect, 100 is complete control
In short: as §1

[14] = system: ducksalad (Heteranthera limosa); assay: Test B flooded paddy test, ducksalad; conditions: Flood, 250 g ai/ha, applied to paddy water, 2-leaf stage, visual evaluation after 13 to 15 d
In short: as §2

[15] = system: barnyardgrass (Echinochloa crus-galli); assay: Test A preemergence, barnyardgrass; conditions: 0 to 100 scale, 0 is no effect, 100 is complete control
In short: as §1

rice (Oryza sativa) = assay: Test B flooded paddy test, rice; conditions: Flood, 250 g ai/ha, applied to paddy water, 2-leaf stage, visual evaluation after 13 to 15 d
In short: as §2

kochia (Kochia scoparia) [16] = assay: Test A preemergence, kochia; conditions: 0 to 100 scale, 0 is no effect, 100 is complete control
In short: as §1

[17] = system: ryegrass, Italian (Lolium multiflorum); assay: Test A postemergence, Italian ryegrass; conditions: 0 to 100 scale, 0 no effect, 100 complete control
In short: as §1

corn (Zea mays) = assay: Test A postemergence, corn; conditions: 0 to 100 scale, 0 no effect, 100 complete control
In short: as §1

[18] = system: sedge, umbrella (small-flower umbrella sedge, Cyperus difformis); assay: Test B flooded paddy test, umbrella sedge; conditions: Flood, 250 g ai/ha, applied to paddy water, 2-leaf stage, visual evaluation after 13 to 15 d
In short: as §2

`C[C@H](Nc1nc(N)c(C(F)(F)F)c(C(F)(F)F)n1)c1cc2ccccc2o1` [Compound 66] was tested, and the “Plant response rating, Foxtail, Giant” value ([1]; 125 g ai/ha) was 0, the “Plant response rating, Foxtail, Giant” value ([1]; 500 g ai/ha) was 0 and the “Ryegrass, Italian plant response rating” value ([2]; 125 g ai/ha) was 0. For the same compound, the “Ryegrass, Italian plant response rating” value ([2]; 500 g ai/ha) was 0, the “Plant response rating, Barnyardgrass (0 to 100 scale, 0 is no effect, 100 is complete control)” value [3] was 0 and the “Plant response rating, Kochia” value (kochia (Kochia scoparia) [4]; 125 g ai/ha) was 20. For the same compound, the “Plant response rating, Kochia” value (kochia (Kochia scoparia) [4]; 500 g ai/ha) was 90, the “Plant response rating, Wheat” value ([5]; 125 g ai/ha) was 0 and the “Plant response rating, Wheat” value ([5]; 500 g ai/ha) was 0. For the same compound, the “Plant response rating, Ragweed” value ([6]; 125 g ai/ha) was 0, the “Plant response rating, Ragweed” value ([6]; 500 g ai/ha) was 20 and the “Plant response rating, Pigweed” value ([7]; 125 g ai/ha) was 30. The “Plant response rating, Pigweed” value ([7]; 500 g ai/ha) was 100, the “Foxtail, Giant plant response rating” value ([8]; 125 g ai/ha) was 0 and the “Foxtail, Giant plant response rating” value ([8]; 500 g ai/ha) was 0. The “Plant response rating, Barnyardgrass” value ([9]; 125 g ai/ha) was 0, the “Plant response rating, Barnyardgrass” value ([9]; 500 g ai/ha) was 30 and the “Pigweed plant response rating” value ([10]; 125 g ai/ha) was 0. For the same compound, the “Pigweed plant response rating” value ([10]; 500 g ai/ha) was 0, the “Plant response rating, Blackgrass” value ([11]; 125 g ai/ha) was 0 and the “Plant response rating, Blackgrass” value ([11]; 500 g ai/ha) was 30. The “Plant response rating, Galium” value ([12]; 125 g ai/ha) was 30, the “Plant response rating, Galium” value ([12]; 500 g ai/ha) was 40 and the “Ragweed plant response rating” value ([13]; 125 g ai/ha) was 0. For the same compound, the “Ragweed plant response rating” value ([13]; 500 g ai/ha) was 0, the “Plant response rating, Ducksalad (0 to 100 scale, 0 is no effect, 100 is complete control)” value [14] was 0 and the “Barnyardgrass plant response rating” value ([15]; 125 g ai/ha) was 0. For the same compound, the “Barnyardgrass plant response rating” value ([15]; 500 g ai/ha) was 0, the “Plant response rating, Rice (0 to 100 scale, 0 is no effect, 100 is complete control)” value (rice (Oryza sativa)) was 0 and the “Kochia plant response rating” value (kochia (Kochia scoparia) [16]; 125 g ai/ha) was 0. The “Kochia plant response rating” value (kochia (Kochia scoparia) [16]; 500 g ai/ha) was 0, the “Plant response rating, Ryegrass, Italian” value ([17]; 125 g ai/ha) was 0 and the “Plant response rating, Ryegrass, Italian” value ([17]; 500 g ai/ha) was 0. For the same compound, the “Plant response rating, Corn” value (corn (Zea mays); 125 g ai/ha) was 0, the “Plant response rating, Corn” value (corn (Zea mays); 500 g ai/ha) was 20 and the “Plant response rating, Sedge, Umbrella (0 to 100 scale, 0 is no effect, 100 is complete control)” value [18] was 0.
`C[C@H](Nc1ncc(C(F)(F)F)c(N)n1)c1cc2cccc(F)c2o1` [Compound 72] was tested, and the “Plant response rating, Foxtail, Giant” value ([1]; 125 g ai/ha) was 0, the “Plant response rating, Foxtail, Giant” value ([1]; 500 g ai/ha) was 0 and the “Ryegrass, Italian plant response rating” value ([2]; 125 g ai/ha) was 0. For the same compound, the “Ryegrass, Italian plant response rating” value ([2]; 500 g ai/ha) was 0, the “Plant response rating, Barnyardgrass (0 to 100 scale, 0 is no effect, 100 is complete control)” value [3] was 0 and the “Plant response rating, Kochia” value (kochia (Kochia scoparia) [4]; 125 g ai/ha) was 0. For the same compound, the “Plant response rating, Kochia” value (kochia (Kochia scoparia) [4]; 500 g ai/ha) was 30, the “Plant response rating, Wheat” value ([5]; 125 g ai/ha) was 0 and the “Plant response rating, Wheat” value ([5]; 500 g ai/ha) was 0. The “Plant response rating, Ragweed” value ([6]; 125 g ai/ha) was 0, the “Plant response rating, Ragweed” value ([6]; 500 g ai/ha) was 30 and the “Plant response rating, Pigweed” value ([7]; 125 g ai/ha) was 40. For the same compound, the “Plant response rating, Pigweed” value ([7]; 500 g ai/ha) was 50, the “Foxtail, Giant plant response rating” value ([8]; 125 g ai/ha) was 0 and the “Foxtail, Giant plant response rating” value ([8]; 500 g ai/ha) was 0. The “Plant response rating, Barnyardgrass” value ([9]; 125 g ai/ha) was 0, the “Plant response rating, Barnyardgrass” value ([9]; 500 g ai/ha) was 0 and the “Pigweed plant response rating” value ([10]; 125 g ai/ha) was 0. The “Pigweed plant response rating” value ([10]; 500 g ai/ha) was 80, the “Plant response rating, Blackgrass” value ([11]; 125 g ai/ha) was 0 and the “Plant response rating, Blackgrass” value ([11]; 500 g ai/ha) was 0. For the same compound, the “Plant response rating, Galium” value ([12]; 125 g ai/ha) was 0, the “Plant response rating, Galium” value ([12]; 500 g ai/ha) was 40 and the “Ragweed plant response rating” value ([13]; 125 g ai/ha) was 0. For the same compound, the “Ragweed plant response rating” value ([13]; 500 g ai/ha) was 0, the “Plant response rating, Ducksalad (0 to 100 scale, 0 is no effect, 100 is complete control)” value [14] was 0 and the “Barnyardgrass plant response rating” value ([15]; 125 g ai/ha) was 0. The “Barnyardgrass plant response rating” value ([15]; 500 g ai/ha) was 0, the “Plant response rating, Rice (0 to 100 scale, 0 is no effect, 100 is complete control)” value (rice (Oryza sativa)) was 0 and the “Kochia plant response rating” value (kochia (Kochia scoparia) [16]; 125 g ai/ha) was 0. For the same compound, the “Kochia plant response rating” value (kochia (Kochia scoparia) [16]; 500 g ai/ha) was 0, the “Plant response rating, Ryegrass, Italian” value ([17]; 125 g ai/ha) was 0 and the “Plant response rating, Ryegrass, Italian” value ([17]; 500 g ai/ha) was 0. For the same compound, the “Plant response rating, Corn” value (corn (Zea mays); 125 g ai/ha) was 0, the “Plant response rating, Corn” value (corn (Zea mays); 500 g ai/ha) was 0 and the “Plant response rating, Sedge, Umbrella (0 to 100 scale, 0 is no effect, 100 is complete control)” value [18] was 0.

— US20220119354A1, “DIAMINO-SUBSTITUTED PYRIDINES AND PYRIMIDINES AS HERBICIDES” (FMC Corporation, priority 2019, published 2022)
